Data from patent publication US5925333A, “Methods for modulation of lipid uptake” (Massachusetts Institute of Technology, priority 1995, dated 1999).

What was measured:
liver cells = experiment: Uptake of lipid from fluorescently labeled HDL injected into estrogen-treated rats, liver; format: in vivo, rat; details: fluorescently labeled HDL injected into estrogen-treated vs sham-injected rats
LDL receptor = experiment: Immunoblot of LDL receptor expression in estrogen-treated rats; format: in vivo, rat; details: 5 mg/kg subcutaneous for five consecutive days, vs sham, liver
adrenal tissues = experiment: Uptake of lipid from fluorescently labeled HDL injected into estrogen-treated rats, adrenal; format: in vivo, rat; details: fluorescently labeled HDL injected into estrogen-treated vs sham-injected rats
SR-BI = experiment: Immunoblot of SR-BI expression in tissues of estrogen-treated rats; format: in vivo, rat; details: 5 mg/kg subcutaneous for five consecutive days
Procedure: To determine the size of mSR-BI and its tissue distribution, a rabbit anti-mSR-BI polyclonal antibody was prepared by immunization of a 16 amino acid peptide (residues 495 to 509 from the predicted protein sequence of mSR-BI plus an additional N-terminal cysteine) coupled to keyhole limpet hemocyanin. This is referred to as anti-mSR-BI^495 antiserum. The antiserum was used for immunoblot analysis of cultured cells and murine tissues.
Post-nuclear cell extracts from ldlA and ldlA[mSR-BI] cells and membranes (post-nuclear 100,000×g pellets) from murine tissues were isolated, reduced, and separated by 6.5% SDS-polyacrylamide gel electrophoresis (50 μg protein/lane), transferred to nitrocellulose and probed with a primary anti-mSR-BI^495 antipeptide antibody (rabbit IgG fraction, 1:5000 dilution) and developed using a horseradish peroxidase labeled second antibody and ECL kit (5 min exposure, Amersham). Ponceau S staining was used as a control for gel loading and transfer.
Tissues of estrogen-treated rats were screened for expression of SR-BI as described above following treatment of rats with 17-α-ethylenyl estradiol (estrogen). The rats were treated for five consecutive days with subcutaneous injections of 5 mg/kg 17-α-ethylenyl estradiol in propylene glycol or with propylene glycol alone (sham-injected).

[1] = target: murine scavenger receptor protein type BI (mSR-BI) (murine)
[2] = target: murine scavenger receptor protein type BI (mSR-BI) (murine); remark: listed apart in the source

| Substance | Uptake of HDL-derived lipids into liver cells (liver cells) | LDL receptor expression (LDL receptor) | Uptake of lipid into adrenal tissues (adrenal tissues) | SR-BI expression in liver (SR-BI; vs sham, liver) | SR-BI levels in tissues showing trace signal (SR-BI; vs sham, lung, testes and skin) | SR-BI expression in rat adrenal membranes (SR-BI; vs sham-injected controls, adrenal membranes) | cell association of the lipid-labeled component of HDL (3H-cholesteryl oleate or DiI) [1] | total cellular cholesterol (free and esterified) after incubation with unlabeled HDL (20 µg protein/ml, 5 hrs) [2] |
| --- | --- | --- | --- | --- | --- | --- | --- | --- |
| 17-α-ethylenyl estradiol [estrogen] | no similar uptake | tremendous upregulation | dramatically increased | dramatically downregulated | no change | upregulation |  |  |
| high density lipoprotein (HDL) prepared from human plasma (from UniProt P02647) |  |  |  |  |  |  | 18% | 20 % increase |
